Source: patent publication US7982042B2, “Thiozanthene derivatives as delta-opioid modulators” (priority 2003, dated 2011)
Like-named read-outs stand apart in the source and are kept apart here.

How the values were obtained:
[1] = molecular target: T1, Rat brain mu opioid receptor (Rattus norvegicus, UniProt P33535); assay: Rat brain mu opioid receptor binding assay ([3H]DAMGO)
T1 construct: from tissue; host or cells: forebrain of male Sprague Dawley rats
Method: • Procedure: Male, Sprague Dawley (150-250 g, VAF, Charles River, Kingston, N.Y.) are killed by CO2, and their brains removed and placed immediately in ice cold Tris HCl buffer (50 mM, pH 7.4). The forebrains are separated from the remainder of the brain by a coronal transection, beginning dorsally at the colliculi and passing ventrally through the midbrain-pontine junction. After dissection, the forebrains are homogenized in Tris buffer in a Teflon®-glass homogenizer. The homogenate is diluted to a concentration of 1 g of forebrain tissue per 80 mL Tris and centrifuged at 39,000×g for 10 min. The pellet is resuspended in the same volume of Tris buffer containing 5 mM MgCl2 with several brief pulses from a Polytron homogenizer. This particulate preparation is used for the mu-opioid binding assays. […] Kd and Ki values are calculated using GraphPad PRISM data analysis program.

[2] = molecular target: T2, Rat brain delta opioid receptor (Rattus norvegicus, UniProt P33533); assay: Rat brain delta opioid receptor binding
T2 construct: from tissue; host or cells: rat brain

[3] = molecular target: T3, human delta opioid receptor (Homo sapiens, UniProt P41143); assay: [35S]GTPγS binding assay in CHO-hδ cell membranes; type: biochemical; details: for inhibition at 10 µM: read-out: inhibition of GTP binding induced with 1 uM DPDPE
T3 construct: purchased Receptor Biology, Inc. (Baltimore, Md.); host or cells: CHO cells expressing the human delta receptor (membranes)
Method: CHO-hδ cell membranes are purchased from Receptor Biology, Inc. (Baltimore, Md.). 10 mg/ml of membrane protein is suspended in 10 mM TRIS-HC pH 7.2, 2 mM EDTA, 10% sucrose.
Membranes are maintained at 4-8° C. 1 ml of membranes is added into 15 ml cold binding assay buffer. The assay buffer contained 50 mM HEPES, pH 7.6, 5 mM MgCl2, 100 mM NaCl, 1 mM DTT and 1 mM EDTA. The membrane suspension is homogenized with a Polytron 2 times and centrifuged at 3000 rpm for 10 min. The supernatant is then centrifuged at 18,000 rpm for 20 min. The pellet is saved in a tube and 10 ml assay buffer is added into the tube. The pellet and buffer are mixed with a Polytron.
The pellet membranes (20 μg/ml) are preincubated with SPA (10 mg/ml) at 25° C. for 45 min in the assay buffer. The SPA (5 mg/ml) coupled with membranes (10 μg/ml) is then incubated with 0.5 nM [^35S]GTPgS in the same HEPES buffer containing 50 μM GDP in total volume of 200 μl. Increasing concentrations of receptor agonists are used to stimulate [^35S]GTPgS binding. The basal binding is tested in the absence of agonists and non-specific binding is tested in the presence of 10 μM unlabeled GTP S. The data are analyzed on a Top counter.

[4] = human delta opioid receptor GTPγS functional assay, read-out: hDOR GTPγS EC50
[5] = hDOR GTPγS EC50, human delta opioid receptor GTPγS functional assay

T1 sequence (P33535 whole entry): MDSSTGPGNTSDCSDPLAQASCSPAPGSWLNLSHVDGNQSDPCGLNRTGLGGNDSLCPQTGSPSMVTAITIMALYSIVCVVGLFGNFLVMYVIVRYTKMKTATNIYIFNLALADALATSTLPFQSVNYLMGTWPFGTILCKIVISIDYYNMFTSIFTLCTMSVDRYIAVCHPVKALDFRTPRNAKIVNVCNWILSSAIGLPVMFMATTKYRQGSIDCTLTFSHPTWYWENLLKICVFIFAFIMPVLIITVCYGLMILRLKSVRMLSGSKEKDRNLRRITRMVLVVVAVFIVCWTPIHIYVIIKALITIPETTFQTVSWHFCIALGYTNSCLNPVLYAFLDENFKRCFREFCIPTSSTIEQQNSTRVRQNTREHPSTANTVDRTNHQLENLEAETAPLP
T3 sequence (P41143 whole entry): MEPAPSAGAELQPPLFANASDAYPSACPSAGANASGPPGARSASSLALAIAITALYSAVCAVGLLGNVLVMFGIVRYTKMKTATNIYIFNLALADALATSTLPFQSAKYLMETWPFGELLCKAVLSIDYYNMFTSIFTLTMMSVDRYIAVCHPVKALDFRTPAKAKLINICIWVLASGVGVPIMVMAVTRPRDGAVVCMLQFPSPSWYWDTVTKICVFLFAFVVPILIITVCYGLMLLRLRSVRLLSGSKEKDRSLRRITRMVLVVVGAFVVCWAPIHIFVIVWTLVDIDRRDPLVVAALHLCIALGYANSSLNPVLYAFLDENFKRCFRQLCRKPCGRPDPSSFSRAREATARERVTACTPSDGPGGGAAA
T2 sequence (P33533 whole entry): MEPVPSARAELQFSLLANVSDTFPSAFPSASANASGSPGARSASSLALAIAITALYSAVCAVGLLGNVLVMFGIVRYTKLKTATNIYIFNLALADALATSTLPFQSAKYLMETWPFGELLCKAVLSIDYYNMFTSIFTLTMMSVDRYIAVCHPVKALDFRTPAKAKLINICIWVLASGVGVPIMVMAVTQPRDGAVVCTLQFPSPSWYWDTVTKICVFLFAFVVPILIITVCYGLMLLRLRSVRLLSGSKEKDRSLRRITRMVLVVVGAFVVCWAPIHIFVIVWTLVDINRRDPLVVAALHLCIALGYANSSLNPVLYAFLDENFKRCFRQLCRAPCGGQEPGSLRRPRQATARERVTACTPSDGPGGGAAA

SMILES | Ki ([1]; read-out: rMOR Ki) | Ki ([2]; read-out: rDOR Ki) | Ki ([2]; rDOR Ki) | Ki ([1]; rMOR Ki) | also measured
CCNC(=O)c1ccc2c(c1)Oc1ccccc1C2=C1CC2CCC(C1)N2 (single isomer, unassigned) [Compound 56] | 712 nM | 161 nM | – | – | –
CCN(CC)C(=O)c1ccc2c(c1)OCc1ccccc1C2=C1CCN(C)CC1 [Compound 1, 11-(1-Methyl-piperidin-4-ylidene)-6,11-dihydro-dibenzo[b,e]oxepine-3-carboxylic acid diethylamide] | 6410 nM | – | 25.5 nM | – | EC50 [3, 4]: > 10000 nM; inhibition at 10 µM [3]: 61%
CCN(CC)C(=O)c1ccc2c(c1)OCc1ccccc1C2=C1CCNCC1 [Compound 2] | – | – | 0.91 nM | 2630 nM | EC50 [3, 5]: 58.6 nM
CCN(CC)C(=O)c1ccc2c(c1)OCc1ccccc1C2=C1CCN(CCc2ccccc2)CC1 [Compound 5, 11-(1-Phenylethylpiperidin-4-ylidene)-6,11-dihydro-dibenzo[b,e]oxepine-3-caroboxylic diethylamide] | 1290 nM | – | 25.3 nM | – | EC50 [3, 4]: > 10000 nM; inhibition at 10 µM [3]: 19%
C=CCN1CCC(=C2c3ccccc3COc3cc(C(=O)N(CC)CC)ccc32)CC1 [Compound 6, 11-(1-Allyl-piperidin-4-ylidene)-6,11-dihydro-dibenzo[b,e]oxepine-3-carboxylic acid diethylamide] | 7910 nM | – | 4.25 nM | – | EC50 [3, 4]: 128 nM
CCNC(=O)c1ccc2c(c1)OCc1ccccc1C2=C1CCN(C)CC1 [Compound 9, 11-(1-Methyl-piperidin-4-ylidene)-6,11-dihydro-dibenzo[b,e]oxepine-3-carboxylic acid ethylamide] | > 100000 nM | > 100000 nM | – | – | –
CCNC(=O)c1ccc2c(c1)OCc1ccccc1C2=C1CCN(C(=O)OCC(Cl)(Cl)Cl)CC1 [Compound 10, 4-(3-Ethylcarbamoyl-6H-dibenzo[b,e]oxepin-11-ylidene) -piperidine-1-carboxylic acid 2,2,2-trichloro-ethyl ester] | 92500 nM | > 100000 nM | – | – | –
CCNC(=O)c1ccc2c(c1)OCc1ccccc1C2=C1CCNCC1 [Compound 11, 11-Piperidin-4-ylidene-6,11-dihydro-dibenzo[b,e]oxepine-3-carboxylic acid ethylamide] | 5660 nM | 317 nM | – | – | –
CCNC(=O)c1ccc2c(c1)OCc1ccccc1C2=C1CCN(Cc2cccs2)CC1 [Compound 13] | 1900 nM | 143 nM | – | – | –
C=C(C)CN1CCC(=C2c3ccccc3COc3cc(C(=O)NCC)ccc32)CC1 [Compound 14] | 4820 nM | 432 nM | – | – | –
CCNC(=O)c1ccc2c(c1)OCc1ccccc1C2=C1CCN(Cc2ccc(O)c(OC)c2)CC1 [Compound 18] | 2420 nM | 2000 nM | – | – | –
C=CCN1CCC(=C2c3ccccc3COc3cc(C(=O)NCC)ccc32)CC1 [Compound 19, 11-(1-Allyl-piperidin-4-ylidene)-6,11-dihydro-dibenzo[b,e]oxepine-3-carboxylic acid ethylamide] | 2870 nM | 368 nM | – | – | –
CCNC(=O)c1ccc2c(c1)OCc1ccccc1C2=C1CCN(CCc2ccccc2)CC1 [Compound 20] | 248 nM | 23300 nM | – | – | –
CCN(CC)C(=O)c1ccc2c(c1)Oc1ccccc1C2=C1CC2CCC(C1)N2C [Compound 23, 9-(8-Methyl-8-aza-bicyclo[3.2.1]oct-3-ylidene)-9H-xanthene-3-carboxylic acid diethylamide] | – | – | 48.4 nM | 5560 nM | EC50 [3, 5]: 245 nM
CCNC(=O)c1ccc2c(c1)Oc1ccccc1C2=C1CC2CCC(C1)N2CCc1ccccc1 [Compound 27] | 189 nM | 209 nM | – | – | –
CCNC(=O)c1ccc2c(c1)Oc1ccccc1C2=C1CCNCC1 [Compound 32, 9-Piperidin-4-ylidene-9H-xanthene-3-carboxylic acid ethylamide] | 1490 nM | – | 73 nM | – | –
C#CCN1CCC(=C2c3ccccc3Oc3cc(C(=O)N(CC)CC)ccc32)CC1 [Compound 33, 9-(1-Prop-2-ynyl-piperidin-4-ylidene)-9H-xanthene-3-carboxylic acid diethylamide] | – | – | 16.5 nM | 5420 nM | –
CCN(CC)C(=O)c1ccc2c(c1)Oc1ccc(NC(C)=O)cc1C2=C1CCNCC1 [Compound 34, 7-Acetylamino-9-piperidin-4-ylidene-9H-xanthene-3-carboxylic acid diethylamide] | > 10000 nM | > 10000 nM | – | – | –
CCN(CC)C(=O)c1ccc2c(c1)Oc1ccc(NC(C)=O)cc1C2=C1CCN(C)CC1 [Compound 41, 7-Acetylamino-9-(1-methyl-piperidin-4-ylidene)-9H-xanthene-3-carboxylic acid diethylamide] | > 10000 nM | 5200 nM | – | – | –
CCN(CC)C(=O)c1ccc2c(c1)Oc1ccccc1C2C1CCN(C)CC1 (centres unmarked) [Compound 43, 9-(1-Methylpiperidin-4-yl)-9H-xanthene-3-carboxylic acid diethylamide] | – | – | – | > 10000 nM | –

SMILES | Ki ([1]; read-out: rMOR Ki) | Ki ([2]; read-out: rDOR Ki) | Ki ([2]; rDOR Ki) | Ki ([1]; rMOR Ki) | also measured
CN(C)C(=O)c1ccc2c(c1)Oc1ccccc1C2=C1CC2CCC(C1)N2 [Compound 57] | – | – | 397 nM | 5260 nM | –
CC(C)NC(=O)c1ccc2c(c1)Oc1ccccc1C2=C1CC2CCC(C1)N2 [Compound 58] | – | – | 1160 nM | 2980 nM | –
CC(C)CN(C)C(=O)c1ccc2c(c1)Oc1ccccc1C2=C1CC2CCC(C1)N2 [Compound 59] | – | – | 10.6 nM | 3340 nM | –
CCCN(CCC)C(=O)c1ccc2c(c1)Oc1ccccc1C2=C1CC2CCC(C1)N2 [Compound 60] | – | – | 4.62 nM | 836 nM | –
CCCNC(=O)c1ccc2c(c1)Oc1ccccc1C2=C1CC2CCC(C1)N2 [Compound 63] | – | – | 108 nM | 1730 nM | –
CNC(=O)c1ccc2c(c1)Oc1ccccc1C2=C1CC2CCC(C1)N2 [Compound 64] | – | – | 118 nM | 711 nM | –
NC(=O)c1ccc2c(c1)Oc1ccccc1C2=C1CC2CCC(C1)N2 [Compound 65] | – | – | 197 nM | 858 nM | –
CCN(CC)C(=O)c1ccc2c(c1)Oc1ccc(C)cc1C2=C1CC2CCC(C1)N2 [Compound 67] | – | – | 54.4 nM | 10900 nM | –
CCN(CC)C(=O)c1ccc2c(c1)Oc1cc(OC)ccc1C2=C1CC2CCC(C1)N2 [Compound 70, 9-(8-Aza-bicyclo[3.2.1]oct-3-ylidene)-6-methoxy-9H-xanthene-3-carboxylic acid diethylamide] | – | – | 2.31 nM | 5740 nM | –
CCN(CC)C(=O)c1ccc2c(c1)Sc1ccccc1C2=C1CC2CCC(C1)N2Cc1c[nH]cn1 [Compound 74] | – | – | 3.79 nM | 848 nM | –
CCNC(=O)c1ccc2c(c1)Sc1ccccc1C2=C1CC2CCC(C1)N2 [Compound 80] | – | – | 260 nM | 473 nM | –
CCNC(=O)c1ccc2c(c1)Sc1ccccc1C2=C1CC2CCC(C1)N2 [Compound 81] | – | – | 77.6 nM | 838 nM | –
CCN(CC)C(=O)c1ccc2c(c1)Oc1ccc(Br)cc1C2=C1CC2CCC(C1)N2 [Compound 83] | – | – | 139 nM | 17700 nM | –
CCN(CC)C(=O)c1ccc2c(c1)Oc1ccc(-c3ccncc3)cc1C2=C1CC2CCC(C1)N2 [Compound 85] | – | – | 3000 nM | 10700 nM | –
CCN(CC)C(=O)c1ccc2c(c1)Oc1ccc(-c3ccoc3)cc1C2=C1CC2CCC(C1)N2 [Compound 86] | – | – | 1760 nM | 12500 nM | –
CCN(CC)C(=O)c1ccc2c(c1)Oc1ccc(-c3ccsc3)cc1C2=C1CC2CCC(C1)N2 [Compound 90] | – | – | 836 nM | 12400 nM | –
CCN(CC)C(=O)c1ccc2c(c1)Oc1ccc(-c3ccc[nH]3)cc1C2=C1CC2CCC(C1)N2 [Compound 93] | – | – | > 10000 nM | > 10000 nM | –
CCN(CC)C(=O)c1ccc2c(c1)Oc1c(cccc1-c1ccccc1)C2=C1CC2CCC(C1)N2 [Compound 95, 9-(8-Aza-bicyclo[3.2.1]oct-3-ylidene)-5-phenyl-9H-xanthene-3-carboxylic acid diethylamide] | – | – | 25.4 nM | 6520 nM | –
CCN(CC)C(=O)c1ccc2c(c1)Oc1c(cccc1-c1cnc3ccccc3c1)C2=C1CC2CCC(C1)N2 [Compound 98] | 7360 nM | – | 24.5 nM | – | –
CCN(CC)C(=O)c1ccc2c(c1)Oc1c(F)cccc1C2=C1CC2CCC(C1)N2 [Compound 102] | – | – | 68 nM | 2860 nM | –
